Laboratory results taken from patent US20250320206A1, “STAT6 DEGRADERS” (Gilead Sciences, Inc., priority 2024, published 2025).

Columns and labels:
[1] = test system: Eotaxin-3 release in human whole blood stimulated with IL-4; experiment: Human Whole Blood Eotaxin-3 Assay (IL-4 stimulated eotaxin-3 release); type: cell-based; conditions: IL-4 stimulation, 48 h, values given for compounds with >80% Emax, geometric mean
Method in brief: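 Eotaxin-3 (CCL26) release measured by MSD kit in plasma supernatant after 48 h IL-4 stimulation ([…]) of human whole blood. Compounds added in triplicate 4-fold dilutions 2 h before stimulation; 0.5% DMSO final, 37° C, 5% CO2.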

STAT6 = molecular target: T1, STAT6 (Homo sapiens, UniProt P42226); experiment: Stat6 Degrader Assay (HiBiT based, HeLa LgBiT clone 4.14); type: cell-based; conditions: HeLa LgBiT clone 4.14 HiBiT-STAT6, 4-24 h incubation; values given for compounds with >80% Emax; geometric mean; read-out: STAT6 degradation DC50
T1 construct: These cells express endogenous STAT6; host or cells: HeLa LgBiT clone 4.14
T1 sequence (P42226 1-847): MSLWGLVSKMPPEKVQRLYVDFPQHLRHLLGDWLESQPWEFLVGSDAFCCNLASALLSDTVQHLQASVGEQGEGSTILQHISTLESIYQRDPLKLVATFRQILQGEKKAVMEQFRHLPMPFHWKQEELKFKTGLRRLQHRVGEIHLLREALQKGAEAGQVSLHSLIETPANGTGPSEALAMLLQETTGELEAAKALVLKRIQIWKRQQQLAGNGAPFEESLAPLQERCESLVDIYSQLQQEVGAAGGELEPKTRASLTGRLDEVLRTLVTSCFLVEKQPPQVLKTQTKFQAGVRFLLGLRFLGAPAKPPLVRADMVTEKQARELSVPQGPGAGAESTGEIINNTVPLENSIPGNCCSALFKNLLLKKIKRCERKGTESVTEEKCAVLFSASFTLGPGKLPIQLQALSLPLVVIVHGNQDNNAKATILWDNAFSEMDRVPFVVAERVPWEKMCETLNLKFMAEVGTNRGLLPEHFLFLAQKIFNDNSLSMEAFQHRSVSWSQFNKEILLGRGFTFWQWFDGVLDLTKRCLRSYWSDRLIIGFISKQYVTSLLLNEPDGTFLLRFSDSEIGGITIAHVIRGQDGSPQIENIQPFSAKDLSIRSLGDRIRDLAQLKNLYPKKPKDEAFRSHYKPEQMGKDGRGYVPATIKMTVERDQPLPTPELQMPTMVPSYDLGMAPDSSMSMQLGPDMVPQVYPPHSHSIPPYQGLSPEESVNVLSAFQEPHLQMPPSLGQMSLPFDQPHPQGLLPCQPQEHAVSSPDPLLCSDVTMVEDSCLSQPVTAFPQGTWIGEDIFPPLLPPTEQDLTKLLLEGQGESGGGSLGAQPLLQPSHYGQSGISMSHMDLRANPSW
Method in brief: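 Luminescence from HiBiT-STAT6 complementing stably expressed LgBiT in HeLa clone 4.14 reports remaining STAT6 protein. Cells (5000/well) exposed to compound for 4-24 h at 37° C; read 0.5 h after Nano-Glo addition. 100% degradation window set with 50 μM terfenadine; percent degradation plotted against concentration.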

EC50 [1] | DC50 (STAT6) | Structure (SMILES)
7 nM | 2.4 nM | C[C@H]1CN(Cc2ccc3c(c2)C(C)(C)C(=O)N3C2CCC(=O)NC2=O)CCN1CC1CCN(C(=O)c2ccc(C3CCN([C@@H](C)c4cc5c(-n6ccc7c(c6=O)CCN7)ccnc5n4C)CC3)cc2)CC1 (stereo partly drawn) [Example 3u184, 3-(3,3-dimethyl-5-(((S)-3-methyl-4-((1-(4-(1-((S)-1-(1-methyl-4-(4-oxo-1,2,3,4-tetrahydro-5H-pyrrolo[3,2-c]pyridin-5-yl)-1H-pyrrolo[2,3-b]pyridin-2-yl)ethyl)piperidin-4-yl)benzoyl)-piperidin-4-yl)methyl)piperazin-1-yl)methyl)-2-oxoindolin-1-yl)piperidine-2,6-dione]
4.2 nM | 3.1 nM | CNc1ccn(-c2ccnc3c2cc([C@H](C)N2CCC(c4ccc(C(=O)N5CCC(CN6CCN(Cc7ccc8c(c7)C(C)(C)C(=O)N8C7CCC(=O)NC7=O)C[C@@H]6C)CC5)cc4)CC2)n3C)c(=O)c1 (stereo partly drawn) [Example 3u187, 3-(3,3-dimethyl-5-(((S)-3-methyl-4-((1-(4-(1-((S)-1-(1-methyl-4-(4-(methylamino)-2-oxopyridin-1 (2H)-yl)-1H-pyrrolo[2,3-b]pyridin-2-yl)ethyl)piperidin-4-yl)benzoyl)piperidin-4-yl)-methyl)piperazin-1-yl)methyl)-2-oxoindolin-1-yl)piperidine-2,6-dione]
2.7 nM | 1.2 nM | CNc1ccn(-c2ccnc3c2cc([C@H](C)N2CCC(c4c(C)cc(C(=O)N5CCC(CN6CCN(Cc7ccc8c(c7)n(C7CC7)c(=O)n8C7CCC(=O)NC7=O)C[C@@H]6C)CC5)cc4F)CC2)n3C)c(=O)c1 (stereo partly drawn) [Example 3u197, 3-(3-cyclopropyl-5-(((S)-4-((1-(3-fluoro-5-methyl-4-(1-((S)-1-(1-methyl-4-(4-(methyl-amino)-2-oxopyridin-1 (2H)-yl)-1H-pyrrolo[2,3-b]pyridin-2-yl)ethyl)piperidin-4-yl)benzoyl)piperidin-4-yl)methyl)-3-methylpiperazin-1-yl)methyl)-2-oxo-2,3-dihydro-1H-benzo[d]imidazol-1-yl)piperidine-2,6-dione]
3.8 nM | 1.3 nM | CNc1ccn(-c2ccnc3c2cc([C@H](C)N2CC=C(c4c(F)cc(C(=O)N5CCC(CN6CCN(Cc7ccc8c(c7)C(C)(C)C(=O)N8C7CCC(=O)NC7=O)C[C@@H]6C)CC5)cc4F)CC2)n3C)c(=O)c1 (stereo partly drawn) [Example 3u201, 3-(5-(((S)-4-((1-(3,5-difluoro-4-(1-((S)-1-(1-methyl-4-(4-(methylamino)-2-oxopyridin-1 (2H)-yl)-1H-pyrrolo[2,3-b]pyridin-2-yl)ethyl)-1,2,3,6-tetrahydropyridin-4-yl)benzoyl)piperidin-4-yl)-methyl)-3-methylpiperazin-1-yl)methyl)-3,3-dimethyl-2-oxoindolin-1-yl)piperidine-2,6-dione]
4.6 nM | 2.5 nM | CNc1ccn(-c2ccnc3c2cc(CN2CCC(c4c(F)cc(C(=O)N5CCC(CN6CCN(Cc7ccc8c(c7)C(C)(C)C(=O)N8C7CCC(=O)NC7=O)C[C@@H]6C)CC5)cc4F)CC2)n3C)c(=O)c1 (stereo partly drawn) [Example 3u204, 3-(5-(((S)-4-((1-(3,5-difluoro-4-(1-((1-methyl-4-(4-(methylamino)-2-oxopyridin-1 (2H)-yl)-1H-pyrrolo[2,3-b]pyridin-2-yl)methyl)piperidin-4-yl)benzoyl)piperidin-4-yl)methyl)-3-methyl-piperazin-1-yl)methyl)-3,3-dimethyl-2-oxoindolin-1-yl)piperidine-2,6-dione]

The next lines start with the molecule.

Structure (SMILES) | EC50 [1] | DC50 (STAT6)
CNc1ccn(-c2ccnc3c2cc([C@H](C)N2CC=C(c4c(C)cc(C(=O)N5CCC(CN6CCN(Cc7cc8c(cc7F)N(C7CCC(=O)NC7=O)C(=O)C87CC7)C[C@@H]6C)CC5)cc4F)CC2)n3C)c(=O)c1 (stereo partly drawn) [Example 3u193, 3-(6′-fluoro-5′-(((S)-4-((1-(3-fluoro-5-methyl-4-(1-((S)-1-(1-methyl-4-(4-(methyl-amino)-2-oxopyridin-1 (2H)-yl)-1H-pyrrolo[2,3-b]pyridin-2-yl)ethyl)-1,2,3,6-tetrahydropyridin-4-yl)benzoyl)piperidin-4-yl)methyl)-3-methylpiperazin-1-yl)methyl)-2′-oxospiro[cyclopropane-1,3′-indolin]-1′-yl)piperidine-2,6-dione] | 2.4 nM | 1.9 nM
C[C@H]1CN(Cc2ccc3c(c2)n(C2CC2)c(=O)n3C2CCC(=O)NC2=O)CCN1CC1CCN(C(=O)c2cc(F)c(C3CCN([C@@H](C)c4cc5c(-n6ccc7c(c6=O)CCN7)ccnc5n4C)CC3)c(F)c2)CC1 (stereo partly drawn) [Example 3u196, 3-(3-cyclopropyl-5-(((S)-4-((1-(3,5-difluoro-4-(1-((S)-1-(1-methyl-4-(4-oxo-1,2,3,4-tetrahydro-5H-pyrrolo[3,2-c]pyridin-5-yl)-1H-pyrrolo[2,3-b]pyridin-2-yl)ethyl)piperidin-4-yl)benzoyl)-piperidin-4-yl)methyl)-3-methylpiperazin-1-yl)methyl)-2-oxo-2,3-dihydro-1H-benzo[d]imidazol-1-yl)-piperidine-2,6-dione] | 0.5 nM | 0.3 nM
C[C@H]1CN(Cc2cc3c(cc2F)N(C2CCC(=O)NC2=O)C(=O)C3(C)C)CCN1CC1CCN(C(=O)c2cc(F)c(C3=CCN([C@@H](C)c4cc5c(-n6ccc7c(c6=O)CCN7)ccnc5n4C)CC3)c(F)c2)CC1 (stereo partly drawn) [Example 3u200, 3-(5-(((S)-4-((1-(3,5-difluoro-4-(1-((S)-1-(1-methyl-4-(4-oxo-1,2,3,4-tetrahydro-5H-pyrrolo[3,2-c]pyridin-5-yl)-1H-pyrrolo[2,3-b]pyridin-2-yl)ethyl)-1,2,3,6-tetrahydropyridin-4-yl)-benzoyl)piperidin-4-yl)methyl)-3-methylpiperazin-1-yl)methyl)-6-fluoro-3,3-dimethyl-2-oxoindolin-1-yl)piperidine-2,6-dione] | 9.9 nM | 2 nM
CNc1ccn(-c2ccnc3c2cc([C@H](C)N2CC=C(c4c(C)cc(C(=O)N5CCC(CN6CCN(Cc7cc8c(cc7F)n(C7CCC(=O)NC7=O)c(=O)n8C)C[C@@H]6C)CC5)cc4F)CC2)n3C)c(=O)c1 (stereo partly drawn) [Example 3u207, 3-(6-fluoro-5-(((S)-4-((1-(3-fluoro-5-methyl-4-(1-((S)-1-(1-methyl-4-(4-(methyl-amino)-2-oxopyridin-1 (2H)-yl)-1H-pyrrolo[2,3-b]pyridin-2-yl)ethyl)-1,2,3,6-tetrahydropyridin-4-yl)-benzoyl)piperidin-4-yl)methyl)-3-methylpiperazin-1-yl)methyl)-3-methyl-2-oxo-2,3-dihydro-1H-benzo[d]imidazol-1-yl)piperidine-2,6-dione] | 0.2 nM | 0.3 nM
CNc1ccn(-c2ccnc3c2cc([C@H](C)N2CC=C(c4c(F)cc(C(=O)N5CCC(CN6CCN(Cc7ccc8c(c7)n(C7CC7)c(=O)n8C7CCC(=O)NC7=O)C[C@@H]6C)CC5)cc4F)CC2)n3C)c(=O)c1 (stereo partly drawn) [Example 3u210, 3-(3-cyclopropyl-5-(((S)-4-((1-(3,5-difluoro-4-(1-((S)-1-(1-methyl-4-(4-(methylamino)-2-oxopyridin-1 (2H)-yl)-1H-pyrrolo[2,3-b]pyridin-2-yl)ethyl)-1,2,3,6-tetrahydropyridin-4-yl)benzoyl)-piperidin-4-yl)methyl)-3-methylpiperazin-1-yl)methyl)-2-oxo-2,3-dihydro-1H-benzo[d]imidazol-1-yl)piperidine-2,6-dione] | 1.1 nM | 0.5 nM
